Assay results: ChEMBL document CHEMBL5465560, “Selectivity Literature for EUbOPEN Chemogenomic Library” (2024)

Tests used:
[1] = target: Mitogen-activated protein kinase 14 (Homo sapiens, UniProt Q16539); assay: Selectivity interaction (KinomeScan (DiscoverX)) EUB0000655a MAPK14; settings: at 10 µM
[2] = target: Non-receptor tyrosine-protein kinase TYK2 (Homo sapiens, UniProt P29597); settings: at 10 µM
[3] = tested on: Angiopoietin-1 receptor (Homo sapiens), Q02763 [R849W]; assay: (§1) Selectivity interaction (LanthaScreen Eu Kinase Binding Assay) EUB0001632a TEK; settings: at 10 µM
Sequence of Angiopoietin-1 receptor (Homo sapiens), Q02763 [R849W] (Q02763 whole entry R849W): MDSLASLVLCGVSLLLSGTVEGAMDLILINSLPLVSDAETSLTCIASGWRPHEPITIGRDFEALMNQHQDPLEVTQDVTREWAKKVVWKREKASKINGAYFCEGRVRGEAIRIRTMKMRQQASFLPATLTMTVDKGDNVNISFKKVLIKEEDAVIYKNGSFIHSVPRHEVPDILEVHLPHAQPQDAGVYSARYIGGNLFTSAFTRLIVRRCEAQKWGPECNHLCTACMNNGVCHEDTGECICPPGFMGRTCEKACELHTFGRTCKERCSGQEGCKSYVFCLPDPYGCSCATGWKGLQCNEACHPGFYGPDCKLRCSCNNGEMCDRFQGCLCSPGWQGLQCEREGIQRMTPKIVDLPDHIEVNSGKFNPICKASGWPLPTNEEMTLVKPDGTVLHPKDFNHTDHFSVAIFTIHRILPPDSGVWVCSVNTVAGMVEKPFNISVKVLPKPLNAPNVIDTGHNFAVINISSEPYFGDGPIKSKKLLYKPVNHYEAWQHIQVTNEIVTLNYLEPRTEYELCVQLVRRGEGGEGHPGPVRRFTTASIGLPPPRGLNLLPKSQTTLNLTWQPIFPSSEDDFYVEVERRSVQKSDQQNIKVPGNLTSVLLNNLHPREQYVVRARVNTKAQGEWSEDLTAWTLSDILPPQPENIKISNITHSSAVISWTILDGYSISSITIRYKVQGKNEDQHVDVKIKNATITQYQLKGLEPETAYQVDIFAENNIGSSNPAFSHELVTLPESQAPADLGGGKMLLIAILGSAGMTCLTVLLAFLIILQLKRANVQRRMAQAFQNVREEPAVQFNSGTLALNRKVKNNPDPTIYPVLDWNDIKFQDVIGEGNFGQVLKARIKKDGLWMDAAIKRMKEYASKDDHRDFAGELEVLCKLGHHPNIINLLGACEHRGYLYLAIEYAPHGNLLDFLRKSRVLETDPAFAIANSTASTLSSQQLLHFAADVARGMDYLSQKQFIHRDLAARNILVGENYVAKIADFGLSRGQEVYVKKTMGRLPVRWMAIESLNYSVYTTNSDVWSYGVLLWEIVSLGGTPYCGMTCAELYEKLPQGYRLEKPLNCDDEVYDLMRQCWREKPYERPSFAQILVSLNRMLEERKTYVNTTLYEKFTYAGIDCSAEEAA

[4] = tested on: Angiopoietin-1 receptor (Homo sapiens), Q02763 [Y1108F]; assay: as §1; settings: at 10 µM
Sequence of Angiopoietin-1 receptor (Homo sapiens), Q02763 [Y1108F] (Q02763 whole entry Y1108F): as the sequence (Q02763 whole entry R849W) above, with W849R, Y1108F counted along it

[5] = target: Serine/threonine-protein kinase MRCK gamma (Homo sapiens) (UniProt Q6DT37); assay: Selectivity interaction (KinomeScan (DiscoverX)) EUB0001049a CDC42BPG; settings: at 1 µM
Sequence of Serine/threonine-protein kinase MRCK gamma (Homo sapiens) (Q6DT37 whole entry): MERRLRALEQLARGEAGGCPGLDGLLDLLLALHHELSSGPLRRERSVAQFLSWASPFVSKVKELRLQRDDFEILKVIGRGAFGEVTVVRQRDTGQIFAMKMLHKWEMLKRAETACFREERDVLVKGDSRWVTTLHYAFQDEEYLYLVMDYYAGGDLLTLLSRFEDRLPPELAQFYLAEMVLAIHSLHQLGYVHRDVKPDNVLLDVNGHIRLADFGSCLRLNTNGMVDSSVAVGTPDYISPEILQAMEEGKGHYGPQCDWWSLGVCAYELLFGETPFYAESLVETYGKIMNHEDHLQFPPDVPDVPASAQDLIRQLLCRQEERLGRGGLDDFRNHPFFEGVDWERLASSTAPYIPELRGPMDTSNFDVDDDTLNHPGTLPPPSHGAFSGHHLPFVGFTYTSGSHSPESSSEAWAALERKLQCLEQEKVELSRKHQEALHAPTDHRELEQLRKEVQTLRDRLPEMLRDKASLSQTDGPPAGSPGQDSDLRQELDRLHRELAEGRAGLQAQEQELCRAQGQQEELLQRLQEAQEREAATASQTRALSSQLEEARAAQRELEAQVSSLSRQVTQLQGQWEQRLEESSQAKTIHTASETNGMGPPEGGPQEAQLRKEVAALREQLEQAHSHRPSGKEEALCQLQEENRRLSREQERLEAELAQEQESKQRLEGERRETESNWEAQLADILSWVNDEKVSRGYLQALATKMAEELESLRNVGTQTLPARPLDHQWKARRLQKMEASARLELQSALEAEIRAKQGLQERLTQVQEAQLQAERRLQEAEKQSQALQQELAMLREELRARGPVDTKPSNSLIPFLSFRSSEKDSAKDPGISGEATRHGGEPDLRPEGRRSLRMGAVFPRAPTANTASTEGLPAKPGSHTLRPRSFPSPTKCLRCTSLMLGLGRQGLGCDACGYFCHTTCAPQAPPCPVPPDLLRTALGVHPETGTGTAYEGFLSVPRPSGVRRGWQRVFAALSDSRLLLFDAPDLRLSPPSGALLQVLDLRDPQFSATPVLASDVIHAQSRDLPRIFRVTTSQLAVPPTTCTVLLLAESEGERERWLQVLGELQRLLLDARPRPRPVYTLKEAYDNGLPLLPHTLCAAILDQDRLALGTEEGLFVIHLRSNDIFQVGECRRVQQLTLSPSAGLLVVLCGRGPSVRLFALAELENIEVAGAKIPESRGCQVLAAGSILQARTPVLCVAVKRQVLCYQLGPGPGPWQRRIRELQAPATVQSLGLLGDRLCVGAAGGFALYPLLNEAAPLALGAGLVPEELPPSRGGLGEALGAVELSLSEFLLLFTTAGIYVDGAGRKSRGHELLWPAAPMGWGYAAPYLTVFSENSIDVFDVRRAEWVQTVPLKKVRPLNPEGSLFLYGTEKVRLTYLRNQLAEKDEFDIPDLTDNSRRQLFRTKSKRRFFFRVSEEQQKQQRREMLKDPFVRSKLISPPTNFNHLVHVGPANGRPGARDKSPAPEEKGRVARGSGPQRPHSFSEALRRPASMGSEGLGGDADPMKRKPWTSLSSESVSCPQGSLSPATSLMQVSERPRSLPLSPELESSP

[6] = target: T1, Serine/threonine-protein kinase Sgk1 (Homo sapiens) (UniProt O00141); assay: Selectivity interaction (KinomeScan (DiscoverX)) EUB0000695a SGK1; settings: at 100 nM
T1 sequence (whole entry): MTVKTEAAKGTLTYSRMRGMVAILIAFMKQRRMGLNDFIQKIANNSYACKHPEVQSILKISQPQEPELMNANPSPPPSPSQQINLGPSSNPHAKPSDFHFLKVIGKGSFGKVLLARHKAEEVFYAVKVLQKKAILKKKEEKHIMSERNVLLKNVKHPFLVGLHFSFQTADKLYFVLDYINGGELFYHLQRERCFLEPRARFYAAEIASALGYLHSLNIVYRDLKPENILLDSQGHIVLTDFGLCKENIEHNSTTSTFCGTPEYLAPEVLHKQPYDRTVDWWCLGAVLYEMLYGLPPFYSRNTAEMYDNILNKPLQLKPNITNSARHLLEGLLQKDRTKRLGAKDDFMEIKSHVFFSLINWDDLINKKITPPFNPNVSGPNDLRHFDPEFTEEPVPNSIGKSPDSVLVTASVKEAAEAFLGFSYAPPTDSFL

[7] = target: 5'-AMP-activated protein kinase catalytic subunit alpha-1 (Homo sapiens, UniProt Q13131); assay: Selectivity interaction (Kinase panel (literature)) EUB0001199aCl PRKAA1; settings: at 1 µM
[8] = target: Tyrosine-protein kinase Srms (Homo sapiens) (UniProt Q9H3Y6); assay: Selectivity interaction (Kinase panel (Eurofins)) EUB0001564a SRMS; settings: at 1 µM
Sequence of Tyrosine-protein kinase Srms (Homo sapiens) (Q9H3Y6 whole entry): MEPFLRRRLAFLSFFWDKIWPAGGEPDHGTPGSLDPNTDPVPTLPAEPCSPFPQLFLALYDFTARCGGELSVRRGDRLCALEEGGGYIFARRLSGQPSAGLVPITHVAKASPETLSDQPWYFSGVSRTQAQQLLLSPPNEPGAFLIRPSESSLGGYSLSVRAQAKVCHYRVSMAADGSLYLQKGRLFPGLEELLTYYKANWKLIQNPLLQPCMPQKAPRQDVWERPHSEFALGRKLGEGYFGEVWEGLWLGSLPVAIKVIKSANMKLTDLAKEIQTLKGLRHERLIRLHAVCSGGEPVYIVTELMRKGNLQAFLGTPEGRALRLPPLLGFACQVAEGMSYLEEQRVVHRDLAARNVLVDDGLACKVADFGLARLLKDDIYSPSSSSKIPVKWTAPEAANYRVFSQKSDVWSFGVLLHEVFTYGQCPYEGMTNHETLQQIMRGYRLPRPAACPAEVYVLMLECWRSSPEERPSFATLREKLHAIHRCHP

[9] = target: Calcium/calmodulin-dependent protein kinase type II subunit delta (Homo sapiens) (UniProt Q13557); assay: Selectivity interaction (KinomeScan (DiscoverX)) EUB0000618a CAMK2D; settings: at 10 µM
[10] = target: T2, Protein arginine N-methyltransferase 9 (Homo sapiens) (UniProt Q6P2P2); settings: at 10 µM
T2 sequence (whole entry): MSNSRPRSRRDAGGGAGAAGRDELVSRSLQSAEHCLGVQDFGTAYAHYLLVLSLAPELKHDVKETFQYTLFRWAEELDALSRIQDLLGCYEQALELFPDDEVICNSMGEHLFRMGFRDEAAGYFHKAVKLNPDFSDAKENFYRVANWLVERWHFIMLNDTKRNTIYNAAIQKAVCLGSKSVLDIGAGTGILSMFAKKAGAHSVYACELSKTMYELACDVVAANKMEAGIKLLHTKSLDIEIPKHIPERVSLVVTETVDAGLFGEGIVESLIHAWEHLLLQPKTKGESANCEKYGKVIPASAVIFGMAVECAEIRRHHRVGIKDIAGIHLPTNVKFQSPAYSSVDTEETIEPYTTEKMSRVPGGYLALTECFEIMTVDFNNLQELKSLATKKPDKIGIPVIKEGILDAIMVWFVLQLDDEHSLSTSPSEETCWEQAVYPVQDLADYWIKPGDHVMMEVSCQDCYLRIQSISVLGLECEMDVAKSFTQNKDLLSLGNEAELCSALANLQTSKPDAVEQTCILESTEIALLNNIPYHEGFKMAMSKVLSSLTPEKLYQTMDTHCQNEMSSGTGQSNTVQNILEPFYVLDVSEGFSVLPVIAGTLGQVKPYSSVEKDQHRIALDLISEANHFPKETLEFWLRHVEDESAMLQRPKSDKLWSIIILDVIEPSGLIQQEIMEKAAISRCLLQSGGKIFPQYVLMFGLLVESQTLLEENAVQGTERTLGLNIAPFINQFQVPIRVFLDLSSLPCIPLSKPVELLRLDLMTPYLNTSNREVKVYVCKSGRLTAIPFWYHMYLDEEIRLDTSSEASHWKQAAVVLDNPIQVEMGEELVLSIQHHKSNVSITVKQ

[11] = target: T3, Kinase suppressor of Ras 2 (Homo sapiens) (UniProt Q6VAB6); assay: Selectivity interaction (ActivX KiNativ screen (ex vivo kinase selectivity in human PBMCs)) EUB0001619a KSR2; assay type: cell-based; settings: PBMC, at 1 µM
T3 sequence (whole entry): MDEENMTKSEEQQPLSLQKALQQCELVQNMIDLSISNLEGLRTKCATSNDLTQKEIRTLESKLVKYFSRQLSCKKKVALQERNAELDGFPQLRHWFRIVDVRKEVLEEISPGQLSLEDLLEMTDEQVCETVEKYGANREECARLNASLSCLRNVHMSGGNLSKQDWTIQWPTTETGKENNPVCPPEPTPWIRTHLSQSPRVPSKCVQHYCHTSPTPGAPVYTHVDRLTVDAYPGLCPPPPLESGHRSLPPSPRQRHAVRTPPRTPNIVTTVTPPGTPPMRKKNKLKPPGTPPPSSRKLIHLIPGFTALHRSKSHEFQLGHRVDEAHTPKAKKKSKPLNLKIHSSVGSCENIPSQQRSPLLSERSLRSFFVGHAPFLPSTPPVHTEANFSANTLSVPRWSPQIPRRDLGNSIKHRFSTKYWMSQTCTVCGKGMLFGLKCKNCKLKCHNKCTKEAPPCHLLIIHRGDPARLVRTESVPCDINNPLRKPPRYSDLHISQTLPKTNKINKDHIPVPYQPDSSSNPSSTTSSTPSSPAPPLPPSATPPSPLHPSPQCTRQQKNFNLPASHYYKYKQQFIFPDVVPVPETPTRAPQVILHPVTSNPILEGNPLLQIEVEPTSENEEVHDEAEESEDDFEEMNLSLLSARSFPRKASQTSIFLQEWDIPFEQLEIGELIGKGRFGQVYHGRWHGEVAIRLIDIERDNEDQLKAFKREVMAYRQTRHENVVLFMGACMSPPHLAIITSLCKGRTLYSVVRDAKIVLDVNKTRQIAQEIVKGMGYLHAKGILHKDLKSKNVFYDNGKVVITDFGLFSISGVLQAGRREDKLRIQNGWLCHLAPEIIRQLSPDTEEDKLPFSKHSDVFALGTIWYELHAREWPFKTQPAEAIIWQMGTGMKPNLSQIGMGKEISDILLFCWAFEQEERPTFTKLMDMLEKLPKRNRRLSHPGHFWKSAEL

Sequence of Mitogen-activated protein kinase 14 (Q16539 whole entry): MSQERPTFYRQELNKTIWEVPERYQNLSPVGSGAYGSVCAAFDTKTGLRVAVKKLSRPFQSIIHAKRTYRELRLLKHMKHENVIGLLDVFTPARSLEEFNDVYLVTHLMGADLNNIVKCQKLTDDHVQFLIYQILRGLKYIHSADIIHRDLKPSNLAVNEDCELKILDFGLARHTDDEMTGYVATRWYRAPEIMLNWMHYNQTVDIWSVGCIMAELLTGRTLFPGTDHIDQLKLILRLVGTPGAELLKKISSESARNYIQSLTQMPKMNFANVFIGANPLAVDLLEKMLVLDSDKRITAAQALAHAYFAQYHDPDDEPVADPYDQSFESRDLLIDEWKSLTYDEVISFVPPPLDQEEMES
Sequence of Non-receptor tyrosine-protein kinase TYK2 (P29597 whole entry): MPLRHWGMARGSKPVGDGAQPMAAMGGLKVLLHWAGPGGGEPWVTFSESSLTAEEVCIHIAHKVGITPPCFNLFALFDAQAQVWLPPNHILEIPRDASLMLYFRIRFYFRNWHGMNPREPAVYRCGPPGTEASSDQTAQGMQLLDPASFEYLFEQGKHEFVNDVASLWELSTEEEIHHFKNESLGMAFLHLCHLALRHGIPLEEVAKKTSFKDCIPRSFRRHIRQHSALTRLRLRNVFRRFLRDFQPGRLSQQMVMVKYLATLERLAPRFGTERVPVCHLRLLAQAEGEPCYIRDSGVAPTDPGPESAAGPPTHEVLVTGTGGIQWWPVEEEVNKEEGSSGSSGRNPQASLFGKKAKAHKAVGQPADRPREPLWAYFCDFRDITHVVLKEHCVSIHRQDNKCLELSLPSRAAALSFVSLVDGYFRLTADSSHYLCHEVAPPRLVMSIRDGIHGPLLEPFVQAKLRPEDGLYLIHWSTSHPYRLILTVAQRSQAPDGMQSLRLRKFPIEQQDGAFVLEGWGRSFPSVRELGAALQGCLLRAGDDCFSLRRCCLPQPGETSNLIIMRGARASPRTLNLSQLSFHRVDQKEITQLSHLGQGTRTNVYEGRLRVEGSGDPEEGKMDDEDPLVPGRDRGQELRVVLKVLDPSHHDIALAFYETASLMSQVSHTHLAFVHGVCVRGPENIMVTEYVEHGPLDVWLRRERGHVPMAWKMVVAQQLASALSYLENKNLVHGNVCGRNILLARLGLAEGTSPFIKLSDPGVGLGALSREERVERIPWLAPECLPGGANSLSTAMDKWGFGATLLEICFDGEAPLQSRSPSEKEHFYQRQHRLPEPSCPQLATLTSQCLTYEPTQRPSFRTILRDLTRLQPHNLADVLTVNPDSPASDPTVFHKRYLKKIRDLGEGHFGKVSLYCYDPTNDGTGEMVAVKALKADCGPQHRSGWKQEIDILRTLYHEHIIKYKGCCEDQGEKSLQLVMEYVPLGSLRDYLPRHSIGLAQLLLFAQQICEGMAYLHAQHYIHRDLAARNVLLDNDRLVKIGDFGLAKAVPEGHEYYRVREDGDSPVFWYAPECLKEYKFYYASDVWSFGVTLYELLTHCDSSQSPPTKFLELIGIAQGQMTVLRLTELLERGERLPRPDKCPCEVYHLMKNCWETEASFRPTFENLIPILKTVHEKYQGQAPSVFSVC

With `CN(C)CCOc1ccc(-c2nc(-c3ccncc3)c(-c3ccc4c(c3)CC/C4=N\O)[nH]2)cc1` the % of control [1] was 85%.

Compound `Cc1cc([C@@H](C)Nc2ccccc2C(=O)O)c2nc(N3CCOCC3)cc(=O)n2c1` [AZD-6482] has a % of control [2] of 100%.

`Cn1cc(-n2cnc3c(NCc4nc5cc(Cl)c(Cl)cc5[nH]4)nc(N4CCOCC4)nc32)cn1` showed a % of inhibition [3] of -63.9% and a % of inhibition [4] of -24.4%.

`COc1cc(Nc2nc(C)cc(-c3cnn4nc(OC)ccc34)n2)cc(C(F)(F)F)c1` gave a % of control [5] of 89%.

`Cc1cc(F)c(C(=O)Nc2cccc(-c3nncn3C(C)C)n2)cc1-n1cnc(C2CC2)c1` showed a % of control [6] of 90%.

For `CN1Cc2nccc(-c3cn(C)nc3-c3ccc(F)cc3)c2C1=O`, the % of inhibition [7] was 3%.

`CC[C@@H](Nc1c(C#N)c(-c2ccc(-c3cccc(C)c3F)cc2)nc2cnccc12)C(=O)O` [BAY-091] showed a % of inhibition [8] of 26.3%.

`O[C@H]1CC[C@H](Nc2ncc3nc(Nc4c(F)cc(F)cc4F)n([C@H]4CCOC4)c3n2)CC1` was tested, and the % of control [9] was 76%.

Compound `CNCCN1CCC(c2cc(CN(C)C(=O)c3cccc(Oc4ccccc4)c3)ccn2)CC1` has a % activity [10] of over 90%.

Compound `N#Cc1cccc(-c2c[nH]c3ncnc(N4CCOCC4)c23)c1` has a % of inhibition [11] of 12%.
